Source: the OPERA property sets (Mansouri et al. 2018)
In brackets after ≈: the same amount, converted by molar mass.

Conditions: 25 °C

Structure (SMILES)	solubility
Clc1cc(Cl)cc(-c2cc(Cl)cc(Cl)c2)c1	4.22e-06 mM (≈ 0.00123 µg/mL)
COc1ccc2c(c1OC)C(=O)O[C@@H]2[C@H]1c2c(cc3c(c2OC)OCO3)CCN1C	0.449 mM (≈ 186 µg/mL)
CCCCC(C)C	0.0253 mM (≈ 2.54 µg/mL)
O=[N+]([O-])O[C@H]1CO[C@H]2[C@@H]1OC[C@H]2O[N+](=O)[O-]	2.33 mM (≈ 550 µg/mL)
C1=CCCCCC1	0.686 mM (≈ 66 µg/mL)
Cc1cccc2sc3nncn3c12	8.45 mM (≈ 1600 µg/mL)
ClC1=C(Cl)[C@]2(Cl)[C@H]3[C@H]([C@@H]4C=C[C@H]3C4)[C@@]1(Cl)C2(Cl)Cl (racemic)	4.66e-05 mM (≈ 0.017 µg/mL)
O=C(O)c1cc(=O)c(O)c(C(=O)O)o1	42 mM (≈ 8400 µg/mL)
O=C(O)c1cccc(O)c1	52.5 mM (≈ 7250 µg/mL)
CCC(C)C(C)C (stereo not given)	0.0524 mM (≈ 5.25 µg/mL)
COc1ccc(C(O)(c2cncnc2)C2CC2)cc1 (stereo not given)	2.54 mM (≈ 650 µg/mL)
Clc1cccc(Cl)c1-c1ccccc1	0.0108 mM (≈ 2.41 µg/mL)
Oc1c2ccccc2cc2ccccc12	0.0185 mM (≈ 3.59 µg/mL)
C=C(C)c1ccccc1	0.982 mM (≈ 116 µg/mL)
COC(C)C	877 mM (≈ 65000 µg/mL)
C#CC(C)(C)NC(=O)c1cc(Cl)cc(Cl)c1	0.0586 mM (≈ 15 µg/mL)
CCC(N)C(=O)O (stereo not given)	2050 mM (≈ 211000 µg/mL)
c1cnc2c(c1)ccc1cccnc12	14.9 mM (≈ 2690 µg/mL)
Nc1ccc(S(=O)(=O)Nc2nccs2)cc1	3.76 mM (≈ 960 µg/mL)
O=C(O)c1ccccc1F	51.4 mM (≈ 7200 µg/mL)
CCc1cccc2ccccc12	0.0685 mM (≈ 10.7 µg/mL)
CCOP(=S)(OCC)O/N=C(\C#N)c1ccccc1	0.0179 mM (≈ 5.35 µg/mL)
C=CCC1(C(C)CCC)C(=O)NC(=S)NC1=O (stereo not given)	0.348 mM (≈ 88.5 µg/mL)

Structure (SMILES)	solubility
Cc1cc2ccccc2cc1C	0.0127 mM (≈ 1.99 µg/mL)
CC(=O)OCC(C)C	54.2 mM (≈ 6300 µg/mL)
Clc1cc(Cl)c(Cl)c(-c2c(Cl)c(Cl)cc(Cl)c2Cl)c1Cl	3.42e-07 mM (≈ 0.000147 µg/mL)
CC(=O)[C@@]1(O)CC[C@H]2[C@@H]3C[C@H](C)C4=CC(=O)C=C[C@]4(C)[C@@]3(F)[C@@H](O)C[C@@]21C	0.0797 mM (≈ 30 µg/mL)
O=C(O)COc1ccc(Cl)cc1	5.13 mM (≈ 957 µg/mL)
CC(C)(C)c1ccccc1	0.22 mM (≈ 29.5 µg/mL)
C=Cc1ccccc1	2.98 mM (≈ 310 µg/mL)
c1ccc2c(c1)Cc1cc3ccccc3cc1-2	1.1e-05 mM (≈ 0.00238 µg/mL)
Cc1cc(=O)[nH]o1	858 mM (≈ 85000 µg/mL)
CCOC(=S)SSC(=S)OCC	0.0114 mM (≈ 2.76 µg/mL)
ClCC1CO1 (stereo not given)	712 mM (≈ 65900 µg/mL)
Cc1c2ccccc2cc2ccccc12	0.00136 mM (≈ 0.261 µg/mL)
CCCCCCCCl	0.101 mM (≈ 13.6 µg/mL)
CC(C)(C)C(=O)C1C(=O)c2ccccc2C1=O	0.0782 mM (≈ 18 µg/mL)
CCn1cc(C(=O)O)c(=O)c2cnc(N3CCNCC3)nc21	1.06 mM (≈ 322 µg/mL)
C[C@]12CCC(=O)C=C1CC[C@@H]1[C@@H]2CC[C@]2(C)C(=O)CC[C@@H]12	0.202 mM (≈ 57.8 µg/mL)
CC1CCC(C)CC1 (stereo not given)	0.0342 mM (≈ 3.84 µg/mL)
CCC(C)c1cc([N+](=O)[O-])cc([N+](=O)[O-])c1OC(C)=O (stereo not given)	7.79 mM (≈ 2200 µg/mL)
Clc1ccc(-c2cccc(Cl)c2)cc1	0.000398 mM (≈ 0.0888 µg/mL)
O=C1NC(=O)C([N+](=O)[O-])C(=O)N1	5.2 mM (≈ 900 µg/mL)
C=CCBr	31.7 mM (≈ 3830 µg/mL)
O=[N+]([O-])c1cc(C2CCCCC2)c(O)c([N+](=O)[O-])c1	0.0563 mM (≈ 15 µg/mL)
C=CCc1ccc(OC)cc1	1.2 mM (≈ 178 µg/mL)

Structure (SMILES)	solubility
ClCBr	129 mM (≈ 16700 µg/mL)
C=C(Cl)CSC(=S)N(CC)CC	0.447 mM (≈ 100 µg/mL)
c1ccc(-c2ccccc2-c2ccccc2)cc1	0.00538 mM (≈ 1.24 µg/mL)
CCCC(=O)CCC	28 mM (≈ 3200 µg/mL)
O=c1cc[nH]c(=S)[nH]1	5.53 mM (≈ 709 µg/mL)
Cc1cccc(O)c1C	37.4 mM (≈ 4570 µg/mL)
Clc1cc(Cl)cc(Cl)c1	0.0331 mM (≈ 6.01 µg/mL)
Fc1ccc(I)cc1	0.749 mM (≈ 166 µg/mL)
C=CCCCCCC	0.0365 mM (≈ 4.1 µg/mL)
Cc1ccccc1O	239 mM (≈ 25900 µg/mL)
C1=CCCC1	7.85 mM (≈ 535 µg/mL)
Oc1c(Cl)cc(Cl)c(Cl)c1Cc1c(O)c(Cl)cc(Cl)c1Cl	0.344 mM (≈ 140 µg/mL)
N#CNC(=N)N	491 mM (≈ 41300 µg/mL)
O=C1CSC(=S)N1	16.9 mM (≈ 2250 µg/mL)
Cc1cccc2c1Cc1ccccc1-2	0.00605 mM (≈ 1.09 µg/mL)
COP(=O)(Oc1ccccc1)Oc1ccccc1	7.57 mM (≈ 2000 µg/mL)
C#CCCCCCC	0.218 mM (≈ 24 µg/mL)
O=C1NC(=O)c2ccccc21	2.45 mM (≈ 360 µg/mL)
C=CC1CC=CCC1 (stereo not given)	0.462 mM (≈ 50 µg/mL)
NCCC(=O)O	6120 mM (≈ 545000 µg/mL)
O=C(O)c1ccc([N+](=O)[O-])c([N+](=O)[O-])c1	31.6 mM (≈ 6700 µg/mL)

Same assay, conditions: 27 °C

Structure (SMILES)	solubility
C#C[C@]1(O)CC[C@H]2[C@@H]3CCc4cc(O)ccc4[C@H]3CC[C@@]21C	0.0381 mM (≈ 11.3 µg/mL)

Same assay, conditions: 28 °C

Structure (SMILES)	solubility
CCOC(=O)[C@H](Cc1ccc(O)cc1)NC(C)=O	13.8 mM (≈ 3480 µg/mL)

Same assay, conditions: 30 °C

Structure (SMILES)	solubility
CC1=CC(=O)c2ccccc2C1=O	0.929 mM (≈ 160 µg/mL)
COP(=S)(OC)Oc1ccc(C#N)cc1	0.189 mM (≈ 46 µg/mL)
CC1OC(C)OC(C)O1 (stereo not given)	847 mM (≈ 112000 µg/mL)
CCN(CC)CCOC(=O)c1ccc(N)cc1	40 mM (≈ 9450 µg/mL)
CCCCn1c(=O)c2c(ncn2C)n(C)c1=O	23.7 mM (≈ 5600 µg/mL)
NS(=O)(=O)c1cc2c(cc1Cl)N=CNS2(=O)=O	0.899 mM (≈ 266 µg/mL)
Cc1ccc(S(=O)(=O)NC(=O)NN2CCCCCC2)cc1	0.21 mM (≈ 65.4 µg/mL)
COC(=O)c1ccccc1O	48.6 mM (≈ 7400 µg/mL)
Cc1cccc([N+](=O)[O-])c1	3.65 mM (≈ 500 µg/mL)
CN(C)CCN(Cc1ccccc1)c1ccccn1	2.3 mM (≈ 587 µg/mL)
CN=C(O)Oc1cccc(C)c1	15.7 mM (≈ 2600 µg/mL)
